Data from the NIST ThermoML archive (doi:10.1016/j.jct.2009.05.004).

Experiment: mn = molality of the nth substance listed, in mol/kg
Settings: Liquid, Vibrating tube method

[Br-].[Br-].[Zn+2] [zinc bromide] + CCO
Settings | mass density [kg/m3]
293.13 K, 1123 kPa, m1 = 0.4384 | 858.07
293.13 K, 1223 kPa, m1 = 0.9305 | 929.75
293.13 K, 5128 kPa, m1 = 0.4384 | 861.43
293.13 K, 9704 kPa, m1 = 0.4384 | 865.15
293.13 K, 9924 kPa, m1 = 0.9305 | 937.03
293.14 K, 1141 kPa, m1 = 1.887 | 1060.17
293.14 K, 4877 kPa, m1 = 0.9305 | 932.86
293.14 K, 5033 kPa, m1 = 1.887 | 1063.5
293.14 K, 5064 kPa, m1 = 0.3043 | 841.35
293.14 K, 9847 kPa, m1 = 1.887 | 1067.49
293.14 K, 10023 kPa, m1 = 0.05681 | 807.27
293.14 K, 14682 kPa, m1 = 0.4384 | 869.05
293.14 K, 14840 kPa, m1 = 0.9305 | 940.94
293.14 K, 14855 kPa, m1 = 1.887 | 1071.5
293.14 K, 20011 kPa, m1 = 0.9305 | 944.89
293.14 K, 30124 kPa, m1 = 0.3043 | 860.11
293.14 K, 34814 kPa, m1 = 0.9305 | 955.31
293.14 K, 39888 kPa, m1 = 0.9305 | 958.57
293.14 K, 39952 kPa, m1 = 0.05681 | 828.27
293.15 K, 1045 kPa, m1 = 0.3043 | 838
293.15 K, 1235 kPa, m1 = 0.05681 | 800.05
293.15 K, 1523 kPa, m1 = 1.49 | 1007.63
293.15 K, 5024 kPa, m1 = 0.05681 | 803.22
293.15 K, 5032 kPa, m1 = 1.49 | 1010.62
293.15 K, 10123 kPa, m1 = 0.3043 | 845.43
293.15 K, 10214 kPa, m1 = 1.49 | 1014.92
293.15 K, 15624 kPa, m1 = 0.05681 | 811.63
293.15 K, 15624 kPa, m1 = 1.49 | 1019.23
293.15 K, 19877 kPa, m1 = 0.4384 | 872.96
293.15 K, 19914 kPa, m1 = 1.887 | 1075.41
293.15 K, 20035 kPa, m1 = 1.49 | 1022.63
293.15 K, 20124 kPa, m1 = 0.3043 | 853.06
293.15 K, 24809 kPa, m1 = 0.4384 | 876.51
293.15 K, 25007 kPa, m1 = 0.9305 | 948.56
293.15 K, 25014 kPa, m1 = 1.49 | 1026.32
293.15 K, 25232 kPa, m1 = 1.887 | 1079.35
293.15 K, 25412 kPa, m1 = 0.05681 | 818.77
293.15 K, 29867 kPa, m1 = 0.4384 | 880
293.15 K, 29915 kPa, m1 = 0.9305 | 952.01
293.15 K, 29924 kPa, m1 = 1.49 | 1029.82
293.15 K, 29995 kPa, m1 = 1.887 | 1082.75
293.15 K, 34624 kPa, m1 = 1.49 | 1033.04
293.15 K, 34775 kPa, m1 = 0.4384 | 883.24
293.15 K, 35015 kPa, m1 = 0.05681 | 825.19
293.15 K, 35078 kPa, m1 = 1.887 | 1086.23
293.15 K, 35624 kPa, m1 = 0.3043 | 863.74
293.15 K, 39932 kPa, m1 = 1.49 | 1036.53
293.16 K, 1293 kPa, m1 = 0.1696 | 817.98
293.16 K, 5239 kPa, m1 = 0.1696 | 821.27
293.16 K, 9897 kPa, m1 = 0.1696 | 825.03
293.16 K, 14684 kPa, m1 = 0.1696 | 828.75
293.16 K, 15201 kPa, m1 = 0.3043 | 849.37
293.16 K, 19951 kPa, m1 = 0.1696 | 832.68
293.16 K, 20035 kPa, m1 = 0.05681 | 814.92
293.16 K, 30348 kPa, m1 = 0.1696 | 839.91
293.16 K, 35296 kPa, m1 = 0.1696 | 843.12
293.16 K, 39385 kPa, m1 = 0.4384 | 886.15
293.16 K, 39747 kPa, m1 = 1.887 | 1089.29
293.16 K, 39967 kPa, m1 = 0.1696 | 846
293.16 K, 39985 kPa, m1 = 0.3043 | 866.49
293.17 K, 24971 kPa, m1 = 0.1696 | 836.26
293.17 K, 25845 kPa, m1 = 0.3043 | 857.16
293.17 K, 30025 kPa, m1 = 0.05681 | 821.93
298.14 K, 5021 kPa, m1 = 0.9305 | 928.53
298.14 K, 5024 kPa, m1 = 0.4384 | 857.08
298.14 K, 5036 kPa, m1 = 0.05681 | 799.14
298.14 K, 5036 kPa, m1 = 0.1696 | 816.98
298.14 K, 15024 kPa, m1 = 1.887 | 1066.84
298.14 K, 15106 kPa, m1 = 0.4384 | 865.31
298.14 K, 20014 kPa, m1 = 0.3043 | 849.06
298.14 K, 25032 kPa, m1 = 0.9305 | 944.53
298.14 K, 25035 kPa, m1 = 0.4384 | 872.78
298.14 K, 35024 kPa, m1 = 0.05681 | 821.61
298.14 K, 39921 kPa, m1 = 0.05681 | 824.72
298.15 K, 1024 kPa, m1 = 0.9305 | 925.02
298.15 K, 1024 kPa, m1 = 1.887 | 1055.01
298.15 K, 1025 kPa, m1 = 0.4384 | 853.63
298.15 K, 1201 kPa, m1 = 0.1696 | 813.7
298.15 K, 1324 kPa, m1 = 0.05681 | 795.94
298.15 K, 1324 kPa, m1 = 1.49 | 1002.7
298.15 K, 1542 kPa, m1 = 0.3043 | 834.12
298.15 K, 5214 kPa, m1 = 1.49 | 1006.13
298.15 K, 10024 kPa, m1 = 0.4384 | 861.25
298.15 K, 10025 kPa, m1 = 0.05681 | 803.29
298.15 K, 10025 kPa, m1 = 0.1696 | 821.11
298.15 K, 10025 kPa, m1 = 0.3043 | 841.24
298.15 K, 10032 kPa, m1 = 0.9305 | 932.79
298.15 K, 10035 kPa, m1 = 1.49 | 1010.24
298.15 K, 10035 kPa, m1 = 1.887 | 1062.75
298.15 K, 15621 kPa, m1 = 1.49 | 1014.82
298.15 K, 19956 kPa, m1 = 0.05681 | 811.06
298.15 K, 20004 kPa, m1 = 0.9305 | 940.76
298.15 K, 20014 kPa, m1 = 0.1696 | 828.87
298.15 K, 20031 kPa, m1 = 1.887 | 1070.82
298.15 K, 20035 kPa, m1 = 1.49 | 1018.3
298.15 K, 25621 kPa, m1 = 0.3043 | 853.17
298.15 K, 25621 kPa, m1 = 1.49 | 1022.52
298.15 K, 29914 kPa, m1 = 0.05681 | 818.2
298.15 K, 29942 kPa, m1 = 1.887 | 1078.29
298.15 K, 29954 kPa, m1 = 1.49 | 1025.66
298.15 K, 29986 kPa, m1 = 0.1696 | 835.96
298.15 K, 30041 kPa, m1 = 0.4384 | 876.29
298.15 K, 30065 kPa, m1 = 0.9305 | 948.14
298.15 K, 34625 kPa, m1 = 1.49 | 1028.92
298.15 K, 34985 kPa, m1 = 0.3043 | 859.62
298.15 K, 35104 kPa, m1 = 0.4384 | 879.69
298.15 K, 39924 kPa, m1 = 1.49 | 1032.44
298.15 K, 39974 kPa, m1 = 1.887 | 1085.32
298.15 K, 39985 kPa, m1 = 0.4384 | 882.8
298.15 K, 39985 kPa, m1 = 0.9305 | 954.77
